The source of these data is patent US10577308B2, “Sodium channel modulators” (The Florey Institute of Neuroscience and Mental Health, priority 2015, dated 2020).

Like-named read-outs stand apart in the source and are kept apart here.

The target of assay [1] is hNav1.2 (Homo sapiens (Human), UniProt Q99250). Description: Automated patch clamp (IonWorks Quattro) block of hNav1.2 channels in CHO cells. It counts as cell-based. From the text:
(§1) FIG. 1 depicts the voltage sequence used to measure inhibitory activity of compounds as described in Example 3. An automated patch clamp screening assay was used to measure the inhibitory effect (potency) of compounds in three conformational states of the sodium channel: (1) the tonic state (TP1); (2) the frequency-dependent (10 Hz) state (TP11) and (3) the inactivated state (TP12).
(§2) Test Protocol for Determining the Potency of Compounds on Nav1.2 and Nav1.6 Subtypes of Voltage-Gated Sodium Ion Channels Expressed in Mammalian Cells
(§3) Cell culture procedures: Chinese hamster ovary (CHO) cells were stably transfected with the cDNA sequence of either the human SCN2A or SCN8A genes to create hNav1.2 or hNav1.6 cells respectively. The cell lines were cultured in Ham's F-12 medium supplemented with 10% fetal bovine serum and antibiotics in a tissue incubator at 37° C. under a humidified air/CO2 mixture (95/5 v/v). On the day of the experiment, cells were washed twice with Hank's balanced salt solution, treated with trypsin, and resuspended in fresh culture media at a density of 4−6×10^6 cells in 20 ml. Immediately before placing in the IonWorks Quattro instrument, cells were washed in Hank's balanced salt solution to remove culture medium and re-suspended in 3 ml of Hank's balanced salt solution.
(§4) Automated patch clamp recordings of cells using the IonWorks Quattro Instrument: The assay used a 384 microwell plate, which enabled 20 compounds to be studied at four different concentrations in quadruplicate as well as allowing a vehicle control group and a positive control group using mexiletine at 8 different concentrations. Cells were added to the wells of the Population Patch Clamp planar electrode using a 48-channel pipettor in a volume of 6 μL, per well. After 5 minutes incubation at ambient temperature with compounds or vehicle, membrane currents were recorded using the patch clamp amplifier. The pulse pattern was repeated twice, before and after compound addition and peak current amplitudes were measured at three test pulses, TP1, TP11 and TP12 to measure Tonic Block, 10 Hz Frequency-dependent Block and Inactivation State Block, respectively.
(§5) Data analysis: Data acquisition and analyses were carried out using the IonWorks Quattro system operation software which uses an algorithm to correct data for leak currents. Concentration-response curves were fitted by non-linear least squares regression allowing calculation of an IC50 value (μM), being the concentration of the compound producing half-maximal inhibition.
(In patch-clamp work, channel activity is measured electrically.)

In assay [2] the target is hNav1.6 (Homo sapiens (Human), UniProt Q9UQD0). Nature of the assay: Automated patch clamp (IonWorks Quattro) block of hNav1.6 channels in CHO cells. It counts as cell-based.
Sequence of hNav1.6 (Q9UQD0 whole entry): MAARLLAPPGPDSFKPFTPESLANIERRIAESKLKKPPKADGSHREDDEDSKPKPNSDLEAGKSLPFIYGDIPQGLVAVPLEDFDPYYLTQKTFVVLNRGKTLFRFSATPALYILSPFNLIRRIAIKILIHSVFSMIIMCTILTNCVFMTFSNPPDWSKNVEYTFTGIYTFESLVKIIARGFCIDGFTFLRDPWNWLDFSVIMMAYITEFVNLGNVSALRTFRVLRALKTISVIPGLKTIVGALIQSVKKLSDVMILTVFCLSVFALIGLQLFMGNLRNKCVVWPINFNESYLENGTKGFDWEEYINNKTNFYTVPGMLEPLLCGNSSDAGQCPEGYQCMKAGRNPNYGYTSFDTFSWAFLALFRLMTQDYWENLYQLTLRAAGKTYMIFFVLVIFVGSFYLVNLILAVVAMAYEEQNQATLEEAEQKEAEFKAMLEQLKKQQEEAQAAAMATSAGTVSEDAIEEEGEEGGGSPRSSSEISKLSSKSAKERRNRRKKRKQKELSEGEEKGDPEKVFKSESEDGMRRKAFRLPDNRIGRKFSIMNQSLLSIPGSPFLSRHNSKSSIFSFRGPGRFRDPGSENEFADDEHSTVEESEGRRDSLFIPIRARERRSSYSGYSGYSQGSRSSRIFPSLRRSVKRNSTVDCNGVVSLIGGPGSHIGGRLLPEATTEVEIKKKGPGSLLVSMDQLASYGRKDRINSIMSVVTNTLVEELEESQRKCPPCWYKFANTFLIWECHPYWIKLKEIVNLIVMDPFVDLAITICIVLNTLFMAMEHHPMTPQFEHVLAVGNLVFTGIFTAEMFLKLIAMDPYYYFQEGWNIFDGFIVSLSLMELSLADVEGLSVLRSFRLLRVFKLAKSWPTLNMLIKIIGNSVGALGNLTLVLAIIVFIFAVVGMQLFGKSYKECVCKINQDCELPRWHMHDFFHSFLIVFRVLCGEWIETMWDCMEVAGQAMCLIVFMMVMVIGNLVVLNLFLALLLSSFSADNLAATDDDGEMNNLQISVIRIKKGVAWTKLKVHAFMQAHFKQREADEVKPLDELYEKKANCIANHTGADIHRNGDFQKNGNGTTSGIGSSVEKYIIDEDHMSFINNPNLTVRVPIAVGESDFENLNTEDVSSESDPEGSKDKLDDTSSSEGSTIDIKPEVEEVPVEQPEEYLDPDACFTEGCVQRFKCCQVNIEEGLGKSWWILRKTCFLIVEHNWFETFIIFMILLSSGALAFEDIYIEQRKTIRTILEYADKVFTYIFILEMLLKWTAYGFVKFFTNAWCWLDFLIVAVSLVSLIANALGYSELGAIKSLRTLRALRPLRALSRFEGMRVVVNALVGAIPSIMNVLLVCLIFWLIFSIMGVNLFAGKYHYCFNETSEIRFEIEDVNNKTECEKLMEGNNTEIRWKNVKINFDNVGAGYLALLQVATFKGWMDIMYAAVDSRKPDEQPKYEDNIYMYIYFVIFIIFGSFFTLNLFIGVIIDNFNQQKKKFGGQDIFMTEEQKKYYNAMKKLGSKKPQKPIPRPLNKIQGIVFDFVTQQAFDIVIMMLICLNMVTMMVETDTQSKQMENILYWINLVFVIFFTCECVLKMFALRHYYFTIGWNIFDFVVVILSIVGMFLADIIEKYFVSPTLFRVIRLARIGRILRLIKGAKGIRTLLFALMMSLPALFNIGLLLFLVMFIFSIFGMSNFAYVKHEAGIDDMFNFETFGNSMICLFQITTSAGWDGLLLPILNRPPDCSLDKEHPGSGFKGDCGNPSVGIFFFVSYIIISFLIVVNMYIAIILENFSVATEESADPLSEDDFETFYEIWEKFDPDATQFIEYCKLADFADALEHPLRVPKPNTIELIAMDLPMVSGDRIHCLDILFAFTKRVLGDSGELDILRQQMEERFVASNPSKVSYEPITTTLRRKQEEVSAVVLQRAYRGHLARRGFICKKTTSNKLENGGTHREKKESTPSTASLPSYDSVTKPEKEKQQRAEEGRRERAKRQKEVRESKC
Text: as §1, §2, §3, §4, §5

The mark [3] stands for this setting: 10 Hz frequency-dependent block (TP11), read-out: IC50 Nav1.2 10 Hz block.
Where [4] appears, read: Inactivated state block (TP12), read-out: IC50 Nav1.2 Inactivated state block.
The mark [5] stands for this setting: Tonic block (TP1), read-out: IC50 Nav1.2 Tonic block.
Where [6] appears, read: 10 Hz frequency-dependent block (TP11), read-out: IC50 Nav1.6 10 Hz block.
The mark [7] stands for this setting: Inactivated state block (TP12), read-out: IC50 Nav1.6 Inactivated state block.
Where [8] appears, read: Tonic block (TP1), read-out: IC50 Nav1.6 Tonic block.

Sequence of hNav1.2 (Q99250 whole entry): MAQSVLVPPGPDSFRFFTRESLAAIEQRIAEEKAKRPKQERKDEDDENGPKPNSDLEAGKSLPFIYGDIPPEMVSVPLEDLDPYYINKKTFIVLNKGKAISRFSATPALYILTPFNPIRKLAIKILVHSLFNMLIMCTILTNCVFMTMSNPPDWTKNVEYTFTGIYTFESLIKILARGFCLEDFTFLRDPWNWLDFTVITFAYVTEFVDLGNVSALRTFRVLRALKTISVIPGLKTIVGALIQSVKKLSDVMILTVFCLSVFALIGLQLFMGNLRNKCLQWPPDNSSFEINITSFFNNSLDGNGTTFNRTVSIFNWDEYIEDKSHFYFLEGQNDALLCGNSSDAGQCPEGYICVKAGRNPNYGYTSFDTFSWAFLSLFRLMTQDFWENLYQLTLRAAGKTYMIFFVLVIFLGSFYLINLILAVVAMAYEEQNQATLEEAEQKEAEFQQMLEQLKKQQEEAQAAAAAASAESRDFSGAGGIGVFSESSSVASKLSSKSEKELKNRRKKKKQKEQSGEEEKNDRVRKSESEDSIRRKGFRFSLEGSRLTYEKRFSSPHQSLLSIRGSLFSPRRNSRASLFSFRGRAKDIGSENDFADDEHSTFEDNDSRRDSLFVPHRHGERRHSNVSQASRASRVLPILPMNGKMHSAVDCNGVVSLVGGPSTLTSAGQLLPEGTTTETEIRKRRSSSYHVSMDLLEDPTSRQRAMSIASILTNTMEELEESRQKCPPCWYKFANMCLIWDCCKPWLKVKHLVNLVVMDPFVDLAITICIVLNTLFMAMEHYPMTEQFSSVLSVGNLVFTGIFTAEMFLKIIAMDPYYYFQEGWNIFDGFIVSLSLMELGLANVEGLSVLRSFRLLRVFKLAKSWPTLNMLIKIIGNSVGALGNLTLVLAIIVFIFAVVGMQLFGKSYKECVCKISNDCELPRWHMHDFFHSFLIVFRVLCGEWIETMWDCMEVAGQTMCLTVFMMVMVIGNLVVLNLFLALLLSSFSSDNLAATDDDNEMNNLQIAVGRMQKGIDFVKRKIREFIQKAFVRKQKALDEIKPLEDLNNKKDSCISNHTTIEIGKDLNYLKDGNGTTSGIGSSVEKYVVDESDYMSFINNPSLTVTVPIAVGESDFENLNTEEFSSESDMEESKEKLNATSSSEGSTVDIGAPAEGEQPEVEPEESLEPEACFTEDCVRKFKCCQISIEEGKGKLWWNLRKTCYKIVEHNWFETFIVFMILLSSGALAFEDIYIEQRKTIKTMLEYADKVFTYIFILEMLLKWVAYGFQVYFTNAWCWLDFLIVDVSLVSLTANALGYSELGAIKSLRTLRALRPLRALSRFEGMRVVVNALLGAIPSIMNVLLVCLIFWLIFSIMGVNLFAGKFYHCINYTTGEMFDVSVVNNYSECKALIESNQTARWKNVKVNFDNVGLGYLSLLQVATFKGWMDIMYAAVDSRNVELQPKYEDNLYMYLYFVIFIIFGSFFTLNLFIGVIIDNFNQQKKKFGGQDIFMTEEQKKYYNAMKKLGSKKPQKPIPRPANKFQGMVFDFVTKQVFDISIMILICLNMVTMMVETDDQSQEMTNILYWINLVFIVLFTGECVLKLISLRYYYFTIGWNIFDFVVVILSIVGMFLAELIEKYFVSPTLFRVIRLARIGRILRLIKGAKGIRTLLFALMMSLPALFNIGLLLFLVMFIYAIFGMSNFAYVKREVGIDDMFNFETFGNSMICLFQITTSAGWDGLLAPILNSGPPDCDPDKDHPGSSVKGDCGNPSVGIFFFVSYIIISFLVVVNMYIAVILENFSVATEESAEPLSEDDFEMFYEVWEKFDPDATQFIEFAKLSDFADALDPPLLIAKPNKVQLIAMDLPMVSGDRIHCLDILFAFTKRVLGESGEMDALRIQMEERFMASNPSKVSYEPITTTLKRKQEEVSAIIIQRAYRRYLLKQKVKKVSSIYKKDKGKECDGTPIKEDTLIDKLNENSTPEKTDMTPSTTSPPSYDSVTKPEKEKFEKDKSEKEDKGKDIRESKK

A word on the IC50: it is the concentration needed to halve the response being measured. In the case of `Cc1cccc(C)c1OCCCNCc1nn(Cc2ccccc2)c2ccccc12` [Compound 540, N-((1-Benzyl-1H-indazol-3-yl)methyl)-3-(2,6-dimethylphenoxy)propan-1-amine], the IC50 in assay [1] (setting [3]) worked out at 2.3 µM; in assay [1] (setting [4]), 1.2 µM; in assay [1] (setting [5]), 23.5 µM; in assay [2] (setting [6]), 142 µM; in assay [2] (setting [7]), 80.5 µM; in assay [2] (setting [8]) it was 287 µM.

On to `CC(=O)Nc1ccc(CNCCCOc2c(C)cccc2C)cc1` [Compound 542, N-(4-((3-(2,6-Dimethylphenoxy)propylamino)methyl)phenyl)acetamide], for which the IC50 is more than 10 µM in assay [1] (setting [3]); 5 µM in assay [1] (setting [4]); more than 10 µM in assay [1] (setting [5]); more than 10 µM in assay [2] (setting [6]); 7.1 µM in assay [2] (setting [7]); more than 10 µM in assay [2] (setting [8]).

For the compound `Cc1cccc(C)c1OCCCNCc1ccc(O)cc1` [Compound 550, 4-((3-(2,6-Dimethylphenoxy)propylamino)methyl)phenol], the IC50 in assay [1] (setting [3]) was 5.1 µM; in assay [1] (setting [4]), 2.2 µM; in assay [1] (setting [5]), more than 10 µM; in assay [2] (setting [6]), 4.8 µM; in assay [2] (setting [7]), 2.2 µM; in assay [2] (setting [8]), more than 10 µM.

`Cc1cccc(C)c1OCCCNCc1ccccc1F` [Compound 551, 3-(2,6-Dimethylphenoxy)-N-(2-fluorobenzyl)propan-1-amine]: the IC50 was 4.9 µM in assay [1] (setting [3]); 2.1 µM in assay [1] (setting [4]); approximately 10.1 µM in assay [1] (setting [5]); 2 µM in assay [2] (setting [6]); 1.1 µM in assay [2] (setting [7]); 5.6 µM in assay [2] (setting [8]).

`Cc1cccc(C)c1OCCCNCc1cccc(F)c1` [Compound 552, 3-(2,6-Dimethylphenoxy)-N-(3-fluorobenzyl)propan-1-amine]: the IC50 in assay [1] (setting [3]) was 8.1 µM; in assay [1] (setting [4]), 2.4 µM; in assay [1] (setting [5]), 9.5 µM; in assay [2] (setting [6]), 1.9 µM; in assay [2] (setting [7]) it was 1.2 µM; in assay [2] (setting [8]), 3.1 µM.

Take `Cc1cccc(C)c1OCCCNC(C)c1ccccc1` (stereo not drawn) [Compound 553, 3-(2,6-Dimethylphenoxy)-N-(1-phenylethyl)propan-1-amine]: the IC50 in assay [1] (setting [3]) stood at 1.2 µM; in assay [1] (setting [4]) it was 0.2 µM; in assay [1] (setting [5]), 3.6 µM; in assay [2] (setting [6]), 1 µM; in assay [2] (setting [7]) it was 0.3 µM; in assay [2] (setting [8]), 1.6 µM.

As for `Cc1cccc(C)c1OCCCNC(c1ccccc1)c1ccccc1` [Compound 554, N-Benzhydryl-3-(2,6-dimethylphenoxy)propan-1-amine], the IC50 in assay [1] (setting [3]) is 32.2 µM; in assay [1] (setting [4]), 1.4 µM; in assay [1] (setting [5]), more than 1000 µM; in assay [2] (setting [6]), more than 1000 µM; in assay [2] (setting [7]) it was more than 1000 µM; in assay [2] (setting [8]) it was more than 1000 µM.

For the compound `Cc1cccc(C)c1OCCCNCc1c2ccccc2nn1Cc1ccccc1` [Compound 555, N-((2-Benzyl-2H-indazol-3-yl)methyl)-3-(2,6-dimethylphenoxy)propan-1-amine], the IC50 is more than 10 µM in assay [1] (setting [3]); 9.3 µM in assay [1] (setting [4]); more than 10 µM in assay [1] (setting [5]); more than 10 µM in assay [2] (setting [6]); 3.7 µM in assay [2] (setting [7]); more than 10 µM in assay [2] (setting [8]).

Consider `Cc1cccc(C)c1OCCCNCc1cccc(-c2ccccc2F)c1` [Compound 556, 3-(2,6-Dimethylphenoxy)-N-((2′-fluorobiphenyl-3-yl)methyl)propan-1-amine], for which the IC50 in assay [1] (setting [3]) was 4.5 µM; in assay [1] (setting [4]) it was 2.1 µM; in assay [1] (setting [5]), more than 30 µM; in assay [2] (setting [6]), more than 30 µM; in assay [2] (setting [7]) it was 8 µM; in assay [2] (setting [8]) it was more than 30 µM.

With `Cc1cccc(C)c1OCCCNCc1cccc(-c2ccc(F)cc2)c1` [Compound 557, 3-(2,6-Dimethylphenoxy)-N-((4′-fluorobiphenyl-3-yl)methyl)propan-1-amine], the IC50 in assay [1] (setting [3]) is 9.3 µM; in assay [1] (setting [4]) it was 3.2 µM; in assay [1] (setting [5]), more than 30 µM; in assay [2] (setting [6]), more than 30 µM; in assay [2] (setting [7]) it was more than 30 µM; in assay [2] (setting [8]), more than 30 µM.

`Cc1cccc(C)c1OCCCNCc1cccc(-c2cncnc2)c1` [Compound 558, 3-(2,6-Dimethylphenoxy)-N-(3-(pyrimidin-5-yl)benzyl)propan-1-amine]: the half-inhibitory concentration (IC50) in assay [1] (setting [3]) was 0.6 µM; in assay [1] (setting [4]), 0.2 µM; in assay [1] (setting [5]), 1.2 µM; in assay [2] (setting [6]), 0.4 µM; in assay [2] (setting [7]), 0.3 µM; in assay [2] (setting [8]), 0.4 µM.

As to `Cc1cccc(C)c1OCCCNCc1cc(C(C)(C)C)cc(C(C)(C)C)c1` [Compound 559, N-(3,5-Di-tert-butylbenzyl)-3-(2,6-dimethylphenoxy)propan-1-amine], the IC50 in assay [1] (setting [3]), in assay [1] (setting [4]), in assay [1] (setting [5]), in assay [2] (setting [6]), in assay [2] (setting [7]) and in assay [2] (setting [8]) was more than 10 µM in each case.

In the case of `Cc1cccc(C)c1OCCCNC(c1ccccn1)c1ccccn1` [Compound 562, 3-(2,6-Dimethylphenoxy)-N-(dipyridin-2-ylmethyl)propan-1-amine], the IC50 in assay [1] (setting [3]) was 1.2 µM; in assay [1] (setting [4]), 0.1 µM; in assay [1] (setting [5]) it was more than 30 µM; in assay [2] (setting [6]) it was 1.3 µM; in assay [2] (setting [7]), 0.1 µM; in assay [2] (setting [8]), more than 30 µM.

Take `Cc1n[nH]c(C)c1OCCCNC(c1ccccn1)c1ccccn1` [Compound 642, 3-(3,5-Dimethyl-1H-pyrazol-4-yloxy)-N-(dipyridin-2-ylmethyl)propan-1-amine]: the IC50 in assay [1] (setting [3]), in assay [1] (setting [4]), in assay [1] (setting [5]), in assay [2] (setting [6]), in assay [2] (setting [7]) and in assay [2] (setting [8]) was more than 10 µM each time.

`Cc1n[nH]c(C)c1OCCCNCc1cccc(-c2cncnc2)c1` [Compound 643, 3-(3,5-Dimethyl-1H-pyrazol-4-yloxy)-N-(3-(pyrimidin-5-yl)benzyl)propan-1-amine]: the IC50 in assay [1] (setting [3]), in assay [1] (setting [4]), in assay [1] (setting [5]), in assay [2] (setting [6]), in assay [2] (setting [7]) and in assay [2] (setting [8]) was more than 10 µM in each case.

With `Cc1nn(C)c(C)c1OCCCNC(c1ccccn1)c1ccccn1` [Compound 644, N-(Dipyridin-2-ylmethyl)-3-(1,3,5-trimethyl-1H-pyrazol-4-yloxy)propan-1-amine], the 50% inhibitory concentration (IC50) in assay [1] (setting [3]), in assay [1] (setting [4]), in assay [1] (setting [5]), in assay [2] (setting [6]), in assay [2] (setting [7]) and in assay [2] (setting [8]) was more than 10 µM throughout.

As for `Cc1nn(C)c(C)c1OCCCNCc1cccc(-c2cncnc2)c1` [Compound 645, N-(3-(Pyrimidin-5-yl)benzyl)-3-(1,3,5-trimethyl-1H-pyrazol-4-yloxy)propan-1-amine], the concentration for half-maximal inhibition (IC50) in assay [1] (setting [3]), in assay [1] (setting [4]), in assay [1] (setting [5]), in assay [2] (setting [6]), in assay [2] (setting [7]) and in assay [2] (setting [8]) was more than 10 µM throughout.
